Several values for one entry are separate records, joined by “and”; a condition that tells them apart may be missing. Equal values may be shown once.
Assays:
[1] = biological target: T1, SARS-CoV-2 ExoN (nsp14/nsp10) (Severe acute respiratory syndrome coronavirus 2, UniProt P0DTD1); type: biochemical
T1 construct: 50 nM nsp14/nsp10 (1:5) were added for time-course reactions

[2] = test system: SARS-CoV-2 viral genome; type: cell-based

Row | Compound | resistance to ExoN mediated excision relative to an unmodified RNA 3′-end [1] [fold] | number of mutations compared to virus control Vc [2] | Mean number of mutations, transition A > G [2] | Mean number of mutations, transition C > T [2] | Mean number of mutations, transition G > A [2] | Mean number of mutations, transition T > C [2] | Number of Mutations, transition A > G [2] | Number of Mutations, transition C > T [2] | Number of Mutations, transition G > A [2] | Number of Mutations, transition T > C [2]
1 | C[C@@]1(F)[C@H](O)[C@@H](COP(=O)(O)OP(=O)(O)OP(=O)(O)O)O[C@H]1n1cnc2c(=O)[nH]c(N)nc21 [AT-9010, 2′-fluoro-2′-C-methylguanosine-5′-triphosphate] | ~4.8 | – | – | – | – | – | – | – | – | –
2 | CC(C)C[C@H](NC(=O)OCc1ccccc1)C(=O)N[C@@H](C[C@@H]1CCNC1=O)C(O)S(=O)(=O)O (stereo partly shown) [GC376] | – | slight increase of the number of mutations | – | – | – | – | – | – | – | –
3 | CC(C)C(=O)OC[C@H]1O[C@@H](n2ccc(NO)nc2=O)[C@H](O)[C@@H]1O [Molnupiravir, molnupiravir] | – | significant increase in the number of mutations | 842 | 592 | 385 | 910.5 | 813 and 871 | 602 and 582 | 385 | 932 and 889
4 | CNc1nc(N)nc2c1ncn2[C@@H]1O[C@H](COP(=O)(N[C@@H](C)C(=O)OC(C)C)Oc2ccccc2)[C@@H](O)[C@@]1(C)F (stereo partly shown) [Compound 1A] | – | did not show an increased number of mutations | 429 | 24.5 | 6 | 473 | 454 and 404 | 22 and 27 | 7 and 5 | 489 and 457
5 | C[C@@]1(F)[C@H](O)[C@@H](COP(=O)(O)OP(=O)(O)OP(=O)(O)O)O[C@H]1n1ccc(=O)[nH]c1=O [STP, 5′-triphosphate 2′-fluoro-2′-C-methyl uridine] | ~1.2 | – | – | – | – | – | – | – | – | –
6 | CC(C)C[C@H](NC(=O)OCc1ccccc1)C(=O)N[C@@H](CC1CCNC1=O)C(O)S(=O)(=O)[O-].[Na+] (stereo partly shown) [GC 376] | – | – | 465.5 | 62 | 14.5 | 532.5 | 545 and 368 | 51 and 73 | – | 662 and 403

— patent publication US20230364121A1 (priority 2020, published 2023)
